For four compounds, Kd results are on record in patent publication US20260364215A1, “Radiopharmaceutical Compositions Targeting Ephrin Type-A Receptor 2 and Uses Thereof” (PeptiDream Inc., priority 2022, published 2026).

As usually defined, the Kd is the constant that tells how readily two partners part at equilibrium.

The experiment has as its target T1, Recombinant Human EphA2 Fc Protein (Homo sapiens, UniProt P29317).
T1 construct: purchased Elabscience
Put plainly: Interaction analysis (kinetics, KD) of peptides and conjugates against EphA2 by SPR, Biacore T200, single-cycle kinetics (Examples B15 and B22). In kind it is binding. The method, boiled down:
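Biacore T200 SPR with Fc-tagged human EphA2 captured via anti-human antibody; running buffer HBS-P+ pH 7.4 with 1% DMSO, 25 °C. Five serial dilutions of peptide or conjugate run by single-cycle kinetics; KD from ka and kd after baseline subtraction.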
In general terms: SPR reads the build-up and loss of mass on a sensor chip optically.

The structures appear in SMILES notation. Numbered stars: 1 amine (or outer) side, 2 acyl side, 3 side chain; on linkers, the order of the positions; unused ones are H or OH. Bridge positions count the residues as written; N and C are the ends. Square brackets hold non-standard residues; d marks the D form. Side chains are listed from the residue outwards. Peptide text beside a SMILES is read from it. * marks the point of attachment. DOTA(Lu) = O=C1CN2CCN3CCN(CC(=O)*)CCN(CC2)CC(=O)[O][Lu]([O]1)[O]C(=O)C3; NH(1-deoxy-D-glucityl) = OC[C@@H](O)[C@@H](O)[C@H](O)[C@@H](O)CN*; Trp(1-Me,7-Cl) = Cn1cc(C[C@H](N)C(=O)O)c2cccc(Cl)c21; dPhe(3-CONH2) = NC(=O)c1cccc(C[C@@H](N)C(=O)O)c1; Piperazinyl(4-CH2COOH) = O=C(O)CN1CCN(*)CC1; Trp(1-Me) = Cn1cc(C[C@H](N)C(=O)O)c2ccccc21; NMemTyr = CN[C@@H](Cc1cccc(O)c1)C(=O)O; NMe3Pal = CN[C@@H](Cc1cccnc1)C(=O)O; Gly(cBu) = N[C@H](C(=O)O)C1CCC1; NMeE = CN[C@@H](CCC(=O)O)C(=O)O; Aad = N[C@@H](CCCC(=O)O)C(=O)O; NMeN = CN[C@@H](CC(N)=O)C(=O)O; CO = O=C([*:1])[*:2] A value given as a limit tells only on which side of the number the result lay.

T1 sequence (P29317 24-534 limits assumed): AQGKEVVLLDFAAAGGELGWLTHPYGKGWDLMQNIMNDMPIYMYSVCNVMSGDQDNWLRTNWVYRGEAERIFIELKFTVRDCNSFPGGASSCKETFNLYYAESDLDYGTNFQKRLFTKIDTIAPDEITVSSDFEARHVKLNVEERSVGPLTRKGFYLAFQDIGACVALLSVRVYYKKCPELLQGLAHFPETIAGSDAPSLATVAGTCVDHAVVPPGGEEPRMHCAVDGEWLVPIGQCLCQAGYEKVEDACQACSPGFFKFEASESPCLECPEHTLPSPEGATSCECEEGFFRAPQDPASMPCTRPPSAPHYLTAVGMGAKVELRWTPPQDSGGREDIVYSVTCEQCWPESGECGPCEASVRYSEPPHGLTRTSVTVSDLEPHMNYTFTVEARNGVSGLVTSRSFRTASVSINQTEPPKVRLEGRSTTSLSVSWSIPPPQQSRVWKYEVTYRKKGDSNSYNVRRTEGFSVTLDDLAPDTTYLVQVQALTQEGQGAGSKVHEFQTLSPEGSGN

With `C[C@@H](O)[C@@H]1NC(=O)[C@H](Cc2cn(C)c3ccccc23)NC(=O)[C@H](CCC(=O)NC[C@H](O)[C@@H](O)[C@H](O)[C@H](O)CO)NC(=O)[C@H](Cc2cn(C)c3ccccc23)NC(=O)[C@H](CC(N)=O)N(C)C(=O)[C@H](CCCC(N)=O)NC(=O)[C@H](C2CCC2)NC(=O)[C@H](CC(N)=O)NC(=O)[C@H](Cc2cccnc2)N(C)C(=O)[C@@H](Cc2cccc(C(N)=O)c2)NC(=O)CSC[C@@H](C(=O)N[C@H](CCCCNC(=O)CN2CCN3CCN4CCN(CC2)CC(=O)[O][Lu]([O]C(=O)C3)[O]C(=O)C4)C(N)=O)NC(=O)[C@H](CCCC(N)=O)NC1=O` [PDC_EphA2-00022595-C302] ({CH2CO}-[dPhe(3-CONH2)][NMe3Pal]N[Gly(cBu)][Aad](NH2)[NMeN][Trp(1-Me)]E(NH(1-deoxy-D-glucityl))[Trp(1-Me)]T[Aad](NH2)C[dK](DOTA(Lu))-NH2; thioether N-12), the Kd is less than 1 nM.
Regarding `CN1C(=O)[C@H](CCCC(N)=O)NC(=O)[C@H](C2CCC2)NC(=O)[C@H](CC(N)=O)NC(=O)[C@H](Cc2cccc(O)c2)N(C)C(=O)[C@@H](Cc2cccc(C(N)=O)c2)NC(=O)CSC[C@@H](C(=O)N[C@@H](CCCCNC(=O)CN2CCN3CCN4CCN(CC2)CC(=O)[O][Lu]([O]C(=O)C3)[O]C(=O)C4)C(N)=O)NC(=O)[C@H](Cc2cn(C)c3ccccc23)NC(=O)[C@H](CCCCNC(=O)N2CCN(CC(=O)O)CC2)NC(=O)[C@H](Cc2cn(C)c3c(Cl)cccc23)NC(=O)[C@@H]1CCC(=O)O` [PDC_EphA2-00026608-C301] ({CH2CO}-[dPhe(3-CONH2)][NMemTyr]N[Gly(cBu)][Aad](NH2)[NMeE][Trp(1-Me,7-Cl)]K([CO-Piperazinyl(4-CH2COOH)])[Trp(1-Me)]CK(DOTA(Lu))-NH2; thioether N-10), the Kd is less than 1 nM.
The figure for `C[C@@H](O)[C@@H]1NC(=O)[C@H](Cc2cn(C)c3ccccc23)NC(=O)[C@H](CCCCNC(=O)N2CCN(CC(=O)O)CC2)NC(=O)[C@H](Cc2cn(C)c3c(Cl)cccc23)NC(=O)[C@H](CCC(=O)O)N(C)C(=O)[C@H](CCCC(N)=O)NC(=O)[C@H](C2CCC2)NC(=O)[C@H](CC(N)=O)NC(=O)[C@H](Cc2cccc(O)c2)N(C)C(=O)[C@@H](Cc2cccc(C(N)=O)c2)NC(=O)CSC[C@@H](C(=O)N[C@H](CCCCNC(=O)CN2CCN3CCN4CCN(CC2)CC(=O)[O][Lu]([O]C(=O)C3)[O]C(=O)C4)C(=O)O)NC(=O)[C@H](CCCC(N)=O)NC1=O` [PDC_EphA2-00026775] ({CH2CO}-[dPhe(3-CONH2)][NMemTyr]N[Gly(cBu)][Aad](NH2)[NMeE][Trp(1-Me,7-Cl)]K([CO-Piperazinyl(4-CH2COOH)])[Trp(1-Me)]T[Aad](NH2)C[dK](DOTA(Lu))-OH; thioether N-12) is less than 1 nM.
The figure for `CC(C)C[C@@H]1NC(=O)[C@H](CC(N)=O)NC(=O)[C@H](Cc2cccnc2)N(C)C(=O)[C@@H](Cc2cccc(C(N)=O)c2)NC(=O)CSC[C@@H](C(N)=O)NC(=O)[C@H](CCCC(N)=O)NC(=O)[C@H]([C@@H](C)O)NC(=O)[C@H](Cc2cn(C)c3ccccc23)NC(=O)[C@H](CCC(=O)NC[C@H](O)[C@@H](O)[C@H](O)[C@H](O)CO)NC(=O)[C@H](Cc2cn(C)c3c(Cl)cccc23)NC(=O)[C@H](CC(N)=O)N(C)C(=O)[C@H](CCCCNC(=O)CN2CCN3CCN4CCN(CC2)CC(=O)[O][Lu]([O]C(=O)C3)[O]C(=O)C4)NC1=O` [PDC_EphA2-00026714] ({CH2CO}-[dPhe(3-CONH2)][NMe3Pal]NLK(DOTA(Lu))[NMeN][Trp(1-Me,7-Cl)]E(NH(1-deoxy-D-glucityl))[Trp(1-Me)]T[Aad](NH2)C-NH2; thioether N-12) is less than 1 nM.
